One data set concerns Streptococcus pyrogenes. Description: Anti-bacterial activity, zone diameter. It counts as cell-based. The note with it: for zone of inhibition at 50 µg/disc: read-out: Zone diameter given by 50 μg of drug. From the text:
(§1) The anti-bacterial activity of the compound HC274 according to the present invention was also compared with the activity of known anti-bacterial agents with the following results: […]

For another data set, the system named is pseudomonas aeruginosa. Description: Anti-bacterial activity, zone diameter. It counts as cell-based. The note with it: for zone of inhibition at 50 µg/disc: read-out: Zone diameter given by 50 μg of drug.
From the text: as §1

For the next data set, the system named is Nocardia asteroides. The data set is described as follows: Anti-bacterial activity, zone diameter. The settings on record: for zone of inhibition at 50 µg/disc: read-out: Zone diameter given by 50 μg of drug. It is filed as cell-based.
From the text: as §1

Another data set relates to Staphylococcus aureus. Description: Anti-bacterial activity, zone diameter. It counts as cell-based. The note with it: for zone of inhibition at 50 µg/disc: read-out: Zone diameter given by 50 μg of drug.
From the text: as §1

Another data set relates to Proteus vulgaris. The data set is described as follows: Anti-bacterial activity, zone diameter. The note with it: for zone of inhibition at 50 µg/disc: read-out: Zone diameter given by 50 μg of drug. It is filed as cell-based.
From the text: as §1

The test system of a further data set is Nocardia brasiliensis. The data set is described as follows: Anti-bacterial activity, zone diameter. It counts as cell-based. The settings on record: for zone of inhibition at 50 µg/disc: read-out: Zone diameter given by 50 μg of drug.
From the text: as §1

In a further data set the test system is Escherichia coli. The data set is described as follows: Anti-bacterial activity, zone diameter. It is filed as cell-based. The settings on record: for zone of inhibition at 50 µg/disc: read-out: Zone diameter given by 50 μg of drug.
From the text: as §1

For a further data set, the system named is Klebsiella pneumoniac. Description: Anti-bacterial activity, zone diameter. The settings on record: for zone of inhibition at 50 µg/disc: read-out: Zone diameter given by 50 μg of drug. It is filed as cell-based.
From the text: as §1

For the next data set, the system named is platelet aggregation. The data set is described as follows: Platelet aggregation after oral administration in the retired male breeder rat model. The note with it: read-out: ED50 (3 hr. post oral administration). It is filed as in vivo. From the text:
HC 501 has also been evaluated for platelet aggregation 3 hrs. after oral administration in the retired male breeder rat model (R. N. Saunders et al, Lab. Anim. Sci., 1977, 27, 757).

The test system of a further data set is B. fragilis ATCC 23745. The data set is described as follows: Antianaerobic activity, MIC by standard broth dilution method (Table II). It is filed as cell-based. The note with it: Bacteroides fragilis, ATCC23745, 24 h, read-out: Minimal Inhibitory Concentration (MIC). As for the experimental part:
(§2) The activity of the compounds identified in the Table II below was tested for antianaerobic activity against one strain of Bacteroides fragilis, one strain of Bacteroides uniformis, one strain of Clostridium sporogenes and one strain of Trichomonas vaginalis as the test organism. The methods used involved determining the minimum inhibitory concentration by the standard broth dilution method. […] For convenience the compounds are referred to by an internal reference number (an HC number) and this is correlated with the number of the Example wherein its production is described.

For another data set, the system named is T. vaginalis ATCC 30001. The data set is described as above. It is filed as cell-based. The settings on record: Trichomonas vaginalis, ATCC30001, 24 h, read-out: Minimal Inhibitory Concentration (MIC). The protocol:
as §2

The test system of a further data set is B. uniformis ATCC 8492. Described as above. The note with it: Bacteroides uniformis, ATCC8492, 24 h, read-out: Minimal Inhibitory Concentration (MIC). It is filed as cell-based. As for the experimental part: as §2
For a further data set, the system named is C. sporogenes ATCC 19404. Described as above. It counts as cell-based. The settings on record: Clostridium sporogenes, ATCC19404, 24 h, read-out: Minimal Inhibitory Concentration (MIC). The protocol:
The activity of the compounds identified in the Table II below was tested for antianaerobic activity against one strain of Bacteroides fragilis, one strain of Bacteroides uniformis, one strain of Clostridium sporogenes and one strain of Trichomonas vaginalis as the test organism. The methods used involved determining the minimum inhibitory concentration by the standard broth dilution method. The values for metronidazole (2-methyl-5-nitro-1H-imidazole-1-ethanol) are given above for reference purposes. For convenience the compounds are referred to by an internal reference number (an HC number) and this is correlated with the number of the Example wherein its production is described.

A further data set deals with candida albicans. The data set is described as follows: Oral treatment: recovery of viable candida albicans from the kidneys of infected mice. It is filed as in vivo. From the text: Effect of oral treatment with HC274, HC316, HC390, HC415 and Ketoconazole on the recovery of viable candida albicans from the kidneys of infected mice.
Data set [1] has as its system C. perfringens (ATCC 13124). The data set is described as follows: microbe, parasite or virus in culture. It counts as cell-based. The settings on record: Clostridium perfringens, ATCC13124, 24 h.
The next data set is described as follows: in vivo. The settings on record: male mice, 7 day.
Data set [2] has as its system platelet thromboxane generation. The data set is described as follows: Inhibition of platelet thromboxane generation (TxB2, collagen-stimulated human platelet rich plasma). The note with it: 10 min, collagen 8 μg/ml, human PRP, 10 min. incubation, 37° C., read-out: Activity IC50 (50% inhibition of TxB2 generation). It is filed as cell-based. As for the experimental part:
The compounds used according to the invention as anti-thrombotics were tested by the following method for their ability to inhibit platelet thromboxane generation.
Human venous blood was collected from healthy male donors, who had denied any medication in the previous 14 days. Nine volumes of blood were mixed with one volume of 3.24% trisodium citrate. The citrated blood was centrifuged at 160 g for 10 mins. at 22° C. to obtain platelet rich plasma (PRP). The platelets were then counted on a Coulter counter, and the platelet count was adjusted to 200,000 per μl with plasma.
The PRP was then dispensed as aliquots into micro-Eppendorf tubes, maintained at 37° C. in a dry bath. The compounds dissolved either in saline, ethanol, or DMSO were added in duplicate to the PRP aliquots to produce final concentrations of 0.3, 3 and 30 μg/ml. When ethanol and DMSO were used as the vehicle, triplicate controls containing the same percentage of vehicle as the test compounds were made. The final concentration or organic solvent was never more than 0.1%, which in previous experiments had no effect on TxB2 generation.
Following a 10 min. incubation with test compounds or vehicle, collagen was added to produce a final concentration of 8 μg/ml. The tubes were then whirly-mixed for 15 seconds and replaced in the dry bath for a further 10 minutes, controls received saline instead of collagen. The reaction was then stopped by rapid centrifugation, 15,000 g for 3 mins. The plasma was removed and frozen at -29° C. until assayed.
Briefly, 100 μl aliquots, in tricine buffered saline+0.8% gelatin (pH 8.0) of the following were incubated together for 1 hour at 37° C.: thromboxane Tx B2 (plasma extract, spiked plasma extract or standards 20 to 20,000 pg/ml), ^3 H--TxB2 (approximately 15,000 dpm) and anti-TxB2 antiserum (0.5 μg/100 μl). The free and protein bound ^3 H--TxB2 were separated by ammonium sulphate precipitation followed by centrifugation. 300 μl of the supernatant was added to an aqueous scintillation fluid, and the radioactivity present was counted in a liquid scintillation counter. The binding of ^3 H--TxB2 in the absence of added TxB2 was approximately 55%. The least amount of TxB2 to be detected accurately in the plasma was 0.08 ng/ml. Cross reactivity with other prostaglandins is less than 0.005% except PGD2 which is 1%.
Thus plasma samples were assayed to give a rough approximation of TxB2 content. The plasma was then appropriately diluted and assayed in duplicate to give accurate values.
The amount of TxB2 generated by the collagen was calculated by subtracting mean values obtained for the saline stimulated platelets from the mean values obtained from the collagen stimulated platelets. Then the amount of TxB2 generated in the presence of each concentration of compound was expressed as a % control and dose response curves were then constructed to determine the concentration of compound which produced a 50% inhibition.

Setting [3] is: oral, 3 hr, retired male breeder rat.

The values that follow come from US4351948A, “Imidazole hydrazone derivatives” (priority 1980, dated 1982).

In general, LD50 refers to the dose expected to kill half of the subjects tested.

Structures can show the parent of a compound that is named as a salt. Where two headings read alike, the source gives them in different places.

For the molecule `CC1(C)S[C@@H]2[C@H](NC(=O)[C@H](N)c3ccccc3)C(=O)N2[C@H]1C(=O)O` [AMP, Ampicillin], the zone of inhibition at 50 µg/disc in the data set on Streptococcus pyrogenes (50 μg, Streptococcus pyrogenes) stood at 25 mm; with pseudomonas aeruginosa (50 μg, pseudomonas aeruginosa), 0 mm; in the data set on Nocardia asteroides (50 μg) it was 38 mm; in the data set on Staphylococcus aureus (50 μg) it was 21 mm; in the data set with Proteus vulgaris (50 μg) it was 28 mm; in the data set with Nocardia brasiliensis (50 μg), 38 mm. For the same molecule, the zone of inhibition at 50 µg/disc was 17 mm with Escherichia coli (50 μg) and 11 mm in the data set with Klebsiella pneumoniac (50 μg, Klebsiella pneumoniac).
On to `CC(=O)Oc1ccccc1C(=O)O` [Aspirin, 2(Acetyloxy)benzoic acid], for which the ED50 in the data set with platelet aggregation (Rattus norvegicus, po, 3 h) was 7.7 mg/kg.
Turning to `OCCN(CCO)c1nc(N2CCCCC2)c2nc(N(CCO)CCO)nc(N3CCCCC3)c2n1` [Dipyridamide, 2,2',2",2"',[(4,8Di-1-piperidinyl-pyrimido]5,4d[pyrimidine2,6-diyl)dinitrlo] tetrakisethanol], in the data set with platelet aggregation (setting [3]), the ED50 was found to be 6.8 mg/kg.
`Cl.Clc1ccc(NN=C(Cn2ccnc2)c2ccccc2Cl)c(Cl)c1` [HC316, 1-(2-Chlorophenyl)-2-(1H-imidazol-1-yl)ethanone, 2,4-dichlorophenylhydrazone, hydrochloride]: the MIC stood at 2.5 µg/mL in the data set on B. fragilis ATCC 23745 (Test 1); 2.5 µg/mL with B. fragilis ATCC 23745 (Test 2); 2.5 µg/mL with B. fragilis ATCC 23745 (Test 3); 50 µg/mL in the data set with T. vaginalis ATCC 30001 (Test 1); 50 µg/mL in the data set on T. vaginalis ATCC 30001 (Test 2); 50 µg/mL with T. vaginalis ATCC 30001 (Test 3). For the same molecule, the MIC in the data set on B. uniformis ATCC 8492 (Test 1) is 2.5 µg/mL; with B. uniformis ATCC 8492 (Test 2) it was 2.5 µg/mL; in the data set on B. uniformis ATCC 8492 (Test 3), 2.5 µg/mL; with C. sporogenes ATCC 19404 (Test 1), 1 µg/mL; in the data set with C. sporogenes ATCC 19404 (Test 2) it was 2.5 µg/mL; in the data set with C. sporogenes ATCC 19404 (Test 3), 2.5 µg/mL. In data set [1], the MIC is 0.8 µg/mL. In addition, the “Recovery of C.albicans (as percentage of control)” value in the data set with candida albicans (5 mg/kg) is on record as 56.2 percentage of control; in the data set with candida albicans (20 mg/kg), 46.5 percentage of control.
Consider `Clc1ccc(/C(Cn2ccnc2)=N/Nc2c(Cl)cccc2Cl)s1` [HC390, (E)-1-(5-chlorothienyl-2-yl)-2-(1H-imidazol-1-yl)ethanone, 2,6-dichlorophenylhydrazone, hydrochloride], for which the MIC in the data set on B. fragilis ATCC 23745 (Test 1) is 5 µg/mL; in the data set with B. fragilis ATCC 23745 (Test 2) it was 2.5 µg/mL; in the data set on B. fragilis ATCC 23745 (Test 3) it was 2.5 µg/mL; in the data set on T. vaginalis ATCC 30001 (Test 1), above 50 µg/mL; in the data set with T. vaginalis ATCC 30001 (Test 2), above 50 µg/mL; in the data set with T. vaginalis ATCC 30001 (Test 3), above 50 µg/mL. Also, the MIC in the data set with B. uniformis ATCC 8492 (Test 1) was found to be 2.5 µg/mL; in the data set with B. uniformis ATCC 8492 (Test 2), 2.5 µg/mL; with B. uniformis ATCC 8492 (Test 3) it was 2.5 µg/mL; in the data set on C. sporogenes ATCC 19404 (Test 1), 2.5 µg/mL; with C. sporogenes ATCC 19404 (Test 2), 5 µg/mL; in the data set with C. sporogenes ATCC 19404 (Test 3), 7.5 µg/mL. The MIC in [1] is 3.1 µg/mL. Besides, the LD50 at 168 h in the data set “in vivo” (mouse, in vivo, ip, read-out: LD50) amounted to 610 mg/kg. For the same molecule, the LD12.5 in the data set “in vivo” (p.o.) was above 1500 mg/kg. In addition, the “Recovery of C.albicans (as percentage of control)” value is 57.3 percentage of control in the data set on candida albicans (5 mg/kg) and 41.1 percentage of control in the data set on candida albicans (20 mg/kg).
Turning to `Clc1ccc(/C(Cn2ccnc2)=N/Nc2ccccc2Cl)cc1` [HC 501, (Z)-1-(4-chlorophenyl)-2-(1H-imidazol-1-yl)ethanone,2-chlorophenylhydrazone, hydrochloride], the ED50 with platelet aggregation (setting [3]) was determined as 0.003 mg/kg. The IC50 in data set [2] was below 780 nM.
Consider `CCn1cc(C(=O)O)c(=O)c2ccc(C)nc21` [NA, Nalidixic Acid], for which the zone of inhibition at 50 µg/disc with Streptococcus pyrogenes (Streptococcus) came to 0 mm; with pseudomonas aeruginosa (Pseudomonas aeruginosa), 7 mm; in the data set on Nocardia asteroides, 0 mm; in the data set on Staphylococcus aureus, 9 mm; in the data set with Proteus vulgaris it was 25 mm; with Nocardia brasiliensis, 7 mm. Further, the results for the zone of inhibition at 50 µg/disc with Escherichia coli and in the data set on Klebsiella pneumoniac (Klebsiella) were 18 mm and 21 mm, respectively.
Take `O=C1C(CC[S+]([O-])c2ccccc2)C(=O)N(c2ccccc2)N1c1ccccc1` (stereo not shown) [Sulfinpyrazone]: in the data set with platelet aggregation (setting [3]), the ED50 was determined as 4.1 mg/kg.
As to Polymyxin [PM], the “Zone diameter given by 50 μg of drug” value in the data set with Streptococcus pyrogenes (50 μg, Streptococcus pyrogenes) came to 0 MM; in the data set on pseudomonas aeruginosa (50 μg, pseudomonas aeruginosa), 10 MM; with Nocardia asteroides (50 μg), 11 MM; in the data set with Staphylococcus aureus (50 μg) it was 7 MM; in the data set with Proteus vulgaris (50 μg), 12 MM; in the data set with Nocardia brasiliensis (50 μg), 0 MM. In addition, the “Zone diameter given by 50 μg of drug” value in the data set with Escherichia coli (50 μg) was 10 MM; with Klebsiella pneumoniac (50 μg, Klebsiella pneumoniac), 10 MM.
